Assay results taken from patent US10670605B2, “Cysteine reactive probes and uses thereof” (The Scripps Research Institute, priority 2015, dated 2020).

Legend:
Assay in all cases: Competitive isoTOP-ABPP in situ (fragment-treated cells)
Type in all cases: cell-based
[1] = biological target: T1, cysteines in MDA-MB-231 and Ramos cells (Homo sapiens, UniProt Q96RS6); details: 200 μM, insitu
T1 sequence (Q96RS6 1-583): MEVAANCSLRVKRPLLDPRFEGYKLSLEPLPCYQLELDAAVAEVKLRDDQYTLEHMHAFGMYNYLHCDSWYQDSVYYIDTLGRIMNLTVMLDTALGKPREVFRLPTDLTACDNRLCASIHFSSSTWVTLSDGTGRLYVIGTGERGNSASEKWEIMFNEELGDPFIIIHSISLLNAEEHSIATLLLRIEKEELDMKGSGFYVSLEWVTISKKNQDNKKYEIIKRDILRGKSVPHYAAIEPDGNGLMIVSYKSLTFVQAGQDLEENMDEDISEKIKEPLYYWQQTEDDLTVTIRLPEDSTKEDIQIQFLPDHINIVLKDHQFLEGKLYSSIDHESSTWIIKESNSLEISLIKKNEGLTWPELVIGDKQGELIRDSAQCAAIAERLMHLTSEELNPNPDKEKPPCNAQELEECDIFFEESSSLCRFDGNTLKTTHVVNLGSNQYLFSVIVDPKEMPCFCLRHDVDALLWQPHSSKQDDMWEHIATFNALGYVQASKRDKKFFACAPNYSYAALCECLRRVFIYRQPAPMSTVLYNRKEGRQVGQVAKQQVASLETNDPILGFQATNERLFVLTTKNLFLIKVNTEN

[2] = biological target: cysteines in MDA-MB-231 and Ramos cells (Homo sapiens, UniProt P46109); details: 200 μM, insitu
[3] = biological target: T2, cysteines in MDA-MB-231 and Ramos cells (Homo sapiens, UniProt Q2NL82); details: 200 μM, insitu, 231
T2 sequence (Q2NL82 1-804): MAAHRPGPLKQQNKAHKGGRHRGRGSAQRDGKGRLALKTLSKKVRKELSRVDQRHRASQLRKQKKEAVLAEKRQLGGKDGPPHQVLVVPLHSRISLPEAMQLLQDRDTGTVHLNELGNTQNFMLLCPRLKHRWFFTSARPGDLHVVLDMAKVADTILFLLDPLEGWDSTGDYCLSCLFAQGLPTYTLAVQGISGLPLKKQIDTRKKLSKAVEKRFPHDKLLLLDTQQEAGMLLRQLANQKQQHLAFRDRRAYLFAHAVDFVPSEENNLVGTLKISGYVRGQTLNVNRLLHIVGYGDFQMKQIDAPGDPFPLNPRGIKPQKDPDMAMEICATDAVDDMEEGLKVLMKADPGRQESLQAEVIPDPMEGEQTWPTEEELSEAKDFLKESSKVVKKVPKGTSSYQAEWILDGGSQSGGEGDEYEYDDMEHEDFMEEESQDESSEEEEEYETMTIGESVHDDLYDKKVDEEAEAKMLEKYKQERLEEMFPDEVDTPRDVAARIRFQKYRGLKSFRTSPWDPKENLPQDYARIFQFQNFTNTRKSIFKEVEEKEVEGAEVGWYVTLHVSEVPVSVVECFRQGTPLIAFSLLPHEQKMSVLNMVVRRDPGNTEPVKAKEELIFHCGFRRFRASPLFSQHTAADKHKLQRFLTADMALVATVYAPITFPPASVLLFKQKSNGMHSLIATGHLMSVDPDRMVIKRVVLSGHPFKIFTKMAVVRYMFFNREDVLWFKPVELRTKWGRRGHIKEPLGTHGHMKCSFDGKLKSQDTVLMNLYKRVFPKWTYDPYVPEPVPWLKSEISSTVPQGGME

[4] = biological target: T3, cysteines in MDA-MB-231 and Ramos cells (Homo sapiens, UniProt Q9NQ88); details: 200 μM, insitu
T3 sequence (Q9NQ88 1-270): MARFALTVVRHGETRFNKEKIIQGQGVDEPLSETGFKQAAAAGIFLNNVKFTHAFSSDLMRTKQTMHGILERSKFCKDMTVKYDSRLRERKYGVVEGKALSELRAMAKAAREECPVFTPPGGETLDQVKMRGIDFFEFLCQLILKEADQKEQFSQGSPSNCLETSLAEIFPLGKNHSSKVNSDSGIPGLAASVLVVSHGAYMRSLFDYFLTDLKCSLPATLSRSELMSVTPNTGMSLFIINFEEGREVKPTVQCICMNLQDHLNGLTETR

[5] = biological target: T4, cysteines in MDA-MB-231 and Ramos cells (Homo sapiens, UniProt O43175); details: 200 μM, insitu
T4 sequence (O43175 1-533): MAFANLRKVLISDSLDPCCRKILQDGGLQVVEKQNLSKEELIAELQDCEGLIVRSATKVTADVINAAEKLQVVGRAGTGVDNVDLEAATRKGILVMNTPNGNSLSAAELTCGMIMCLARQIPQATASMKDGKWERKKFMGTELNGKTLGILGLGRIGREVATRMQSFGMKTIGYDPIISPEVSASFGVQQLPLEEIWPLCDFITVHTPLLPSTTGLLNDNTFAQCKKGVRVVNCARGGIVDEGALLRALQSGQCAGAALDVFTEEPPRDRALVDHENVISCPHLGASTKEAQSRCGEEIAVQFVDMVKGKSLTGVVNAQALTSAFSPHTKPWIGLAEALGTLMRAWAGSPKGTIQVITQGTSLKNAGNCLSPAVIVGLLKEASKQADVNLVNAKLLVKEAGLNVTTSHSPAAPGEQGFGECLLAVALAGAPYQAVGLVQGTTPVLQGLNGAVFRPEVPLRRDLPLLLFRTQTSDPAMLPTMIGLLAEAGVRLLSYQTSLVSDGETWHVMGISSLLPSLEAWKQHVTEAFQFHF

[6] = biological target: T5, cysteines in MDA-MB-231 and Ramos cells (Homo sapiens, UniProt Q9P0J1); details: 200 μM, insitu
T5 sequence (Q9P0J1 72-537): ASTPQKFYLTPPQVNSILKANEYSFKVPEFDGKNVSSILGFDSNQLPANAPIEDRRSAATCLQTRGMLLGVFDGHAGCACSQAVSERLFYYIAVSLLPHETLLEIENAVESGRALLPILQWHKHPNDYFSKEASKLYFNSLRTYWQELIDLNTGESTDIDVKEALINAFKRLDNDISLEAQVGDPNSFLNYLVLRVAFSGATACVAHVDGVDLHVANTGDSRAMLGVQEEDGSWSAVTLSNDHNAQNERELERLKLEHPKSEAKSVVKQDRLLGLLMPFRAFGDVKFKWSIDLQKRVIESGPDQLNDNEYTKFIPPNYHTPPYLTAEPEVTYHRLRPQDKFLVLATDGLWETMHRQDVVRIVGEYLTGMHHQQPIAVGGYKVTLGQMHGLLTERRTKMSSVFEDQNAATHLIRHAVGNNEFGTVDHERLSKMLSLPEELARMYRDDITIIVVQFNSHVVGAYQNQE

[7] = biological target: cysteines in MDA-MB-231 and Ramos cells (Homo sapiens, UniProt Q9BRF8); details: 200 μM, insitu
Sequence of cysteines in MDA-MB-231 and Ramos cells (Homo sapiens, UniProt Q9BRF8) (Q9BRF8 whole entry): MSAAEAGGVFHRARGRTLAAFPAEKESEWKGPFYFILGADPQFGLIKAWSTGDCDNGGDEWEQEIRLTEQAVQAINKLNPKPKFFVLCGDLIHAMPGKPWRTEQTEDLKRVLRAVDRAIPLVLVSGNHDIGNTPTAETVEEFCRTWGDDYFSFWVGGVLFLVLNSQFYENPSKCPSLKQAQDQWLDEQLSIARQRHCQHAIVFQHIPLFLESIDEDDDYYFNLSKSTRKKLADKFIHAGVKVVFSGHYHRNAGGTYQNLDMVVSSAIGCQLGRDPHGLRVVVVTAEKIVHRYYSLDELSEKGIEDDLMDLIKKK

Sequence of cysteines in MDA-MB-231 and Ramos cells (Homo sapiens, UniProt P46109) (P46109 whole entry): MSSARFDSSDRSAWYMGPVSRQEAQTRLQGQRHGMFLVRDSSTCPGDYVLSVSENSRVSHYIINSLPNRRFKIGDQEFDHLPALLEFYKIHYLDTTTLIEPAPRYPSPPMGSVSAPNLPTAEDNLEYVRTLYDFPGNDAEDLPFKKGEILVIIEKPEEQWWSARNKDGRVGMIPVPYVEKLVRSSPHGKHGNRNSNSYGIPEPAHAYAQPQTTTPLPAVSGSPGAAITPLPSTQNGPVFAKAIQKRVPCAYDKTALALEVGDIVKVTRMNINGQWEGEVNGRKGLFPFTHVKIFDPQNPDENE

| Structure (SMILES) | isoTOP-ABPP ratio Q96RS6_C376 [1]; 231 | isoTOP-ABPP ratio P46109_C249 [2]; 231 | isoTOP-ABPP ratio Q9NQ88_C114 [4]; 231 | isoTOP-ABPP ratio Q9NQ88_C161 [4]; 231 | isoTOP-ABPP ratio Q2NL82_C126 [3] | isoTOP-ABPP ratio Q9P0J1_C149 [6]; 231 | other results |
| --- | --- | --- | --- | --- | --- | --- | --- |
| O=C(CCl)NC12CC3CC(CC(C3)C1)C2 [compound 21] | 1.4 | 0.9 | 0.9 | 1.0 |  |  | isoTOP-ABPP ratio, cysteine Q2NL82_C126 [3]: 1.5; isoTOP-ABPP ratio, cysteine O43175_C369 [5]; 231: 1.0 |
| CC(C)CCOCCNC(=O)CCl [compound 27] |  |  | 0.4 | 0.6 | 0.4 |  |  |
| O=C(CCl)N1CCN(CC(=O)N2CCOCC2)CC1 [compound 29] |  |  |  |  |  |  | isoTOP-ABPP ratio Q96RS6_C376 ([1]; ramos): 1.3; isoTOP-ABPP ratio P46109_C249 ([2]; ramos): 4.2; isoTOP-ABPP ratio Q9P0J1_C149 ([6]; ramos): 1.0; isoTOP-ABPP ratio Q9BRF8_C54 ([7]; ramos): 1.5; isoTOP-ABPP ratio Q9NQ88_C114 ([4]; ramos): 0.9; isoTOP-ABPP ratio Q9NQ88_C161 ([4]; ramos): 1.3; isoTOP-ABPP ratio O43175_C369 ([5]; ramos): 1.1 |
| C=CC(=O)N(Cc1cccnc1)c1cc(C(F)(F)F)cc(C(F)(F)F)c1 [compound 31] | 0.8 |  |  | 1.0 |  |  | isoTOP-ABPP ratio Q9NQ88_C161 ([4]; ramos): 2.6; isoTOP-ABPP ratio O43175_C369 [5]; 231: 20.0; isoTOP-ABPP ratio O43175_C369 ([5]; ramos): 20.0 |
| C=CC(=O)Nc1cc(F)c(N2CCN(C(=O)OC(C)(C)C)CC2)c(F)c1 [compound 38] | 1.3 | 1.6 |  |  | 0.9 | 0.9 |  |
| Cc1ccc(C=C(C#N)C(=O)NCCN2CCOCC2)cc1 [compound 41] | 0.7 |  | 0.6 |  | 0.8 | 20.0 | isoTOP-ABPP ratio Q9BRF8_C54 [7]; 231: 0.7 |
| CC1CCc2ccccc2N1C(=O)CCl (stereo not shown) [compound 45] |  | 20.0 | 4.6 | 20.0 | 20.0 |  | isoTOP-ABPP ratio Q9BRF8_C54 [7]; 231: 20.0 |
| O=C(CCl)Nc1cccc2ncccc12 [compound 51] |  |  |  |  | 1.9 | 0.8 |  |
